Measured values published in the supplement of paper PMC10307832.

Legend:
Experiment in all cases: relative viability (nuclei count vs DMSO), 5 days (fraction); higher = more cells survive
VX-11e + Olaparib = compound: CC1=CN=C(N=C1C2=CNC(=C2)C(=O)N[C@H](CO)C3=CC(=CC=C3)Cl)NC4=C(C=C(C=C4)F)Cl [VX-11e] + O=C(c1cc(Cc2n[nH]c(=O)c3ccccc23)ccc1F)N1CCN(C(=O)C2CC2)CC1 [Olaparib] (partner 8 µM)
How it was run: (§1)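 Dosing by pin tool came one day after lung cancer cell lines were seeded in 1536-well plates, using either one drug or a fixed anchor-drug dose plus five library-drug doses (not always all listed) in √10 steps. After 5 days, nuclei were counted on 4× images. Relative viability is treated-well nuclei count divided by vehicle-well nuclei count, and values are medians of duplicate plates.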

VX-11e + Palbociclib = compound: CC1=CN=C(N=C1C2=CNC(=C2)C(=O)N[C@H](CO)C3=CC(=CC=C3)Cl)NC4=C(C=C(C=C4)F)Cl [VX-11e] + CC(=O)c1c(C)c2cnc(Nc3ccc(N4CCNCC4)cn3)nc2n(C2CCCC2)c1=O [Palbociclib] (partner 0.5 µM)
How it was run: as §1

VX-11e + Alpelisib = compound: CC1=CN=C(N=C1C2=CNC(=C2)C(=O)N[C@H](CO)C3=CC(=CC=C3)Cl)NC4=C(C=C(C=C4)F)Cl [VX-11e] + Cc1nc(NC(=O)N2CCC[C@H]2C(N)=O)sc1-c1ccnc(C(C)(C)C(F)(F)F)c1 [Alpelisib] (partner 2 µM)
How it was run: as §1

VX-11e + Pemetrexed = compound: CC1=CN=C(N=C1C2=CNC(=C2)C(=O)N[C@H](CO)C3=CC(=CC=C3)Cl)NC4=C(C=C(C=C4)F)Cl [VX-11e] + Nc1nc2[nH]cc(CCc3ccc(C(=O)N[C@@H](CCC(=O)O)C(=O)O)cc3)c2c(=O)[nH]1 [Pemetrexed] (partner 0.2 µM)
How it was run: as §1

Cell Line	relative viability (VX-11e + Olaparib; first compound 0.04 µM)	relative viability (VX-11e + Olaparib; first compound 0.1265 µM)	relative viability (VX-11e + Olaparib; first compound 0.4 µM)	relative viability (VX-11e + Olaparib; first compound 1.265 µM)	relative viability (VX-11e + Olaparib; first compound 4 µM)	relative viability (VX-11e + Palbociclib; first compound 0.04 µM)	relative viability (VX-11e + Palbociclib; first compound 0.1265 µM)	relative viability (VX-11e + Palbociclib; first compound 0.4 µM)	relative viability (VX-11e + Palbociclib; first compound 1.265 µM)	relative viability (VX-11e + Palbociclib; first compound 4 µM)	relative viability (VX-11e + Alpelisib; first compound 0.04 µM)	relative viability (VX-11e + Alpelisib; first compound 0.1265 µM)	relative viability (VX-11e + Alpelisib; first compound 0.4 µM)	relative viability (VX-11e + Alpelisib; first compound 1.265 µM)	relative viability (VX-11e + Alpelisib; first compound 4 µM)	relative viability (VX-11e + Pemetrexed; first compound 0.04 µM)	relative viability (VX-11e + Pemetrexed; first compound 0.1265 µM)	relative viability (VX-11e + Pemetrexed; first compound 0.4 µM)	relative viability (VX-11e + Pemetrexed; first compound 1.265 µM)	relative viability (VX-11e + Pemetrexed; first compound 4 µM)
201T	0.846	0.809	0.832	0.792	0.773	0.206	0.337	0.361	0.353	0.348	1.01	0.989	0.995	1.08	0.92	0.347	0.344	0.317	0.249	0.31
A549	0.237	0.246	0.0406	0.184	0.0866						0.737	0.622	0.451	0.313	0.0519					
A-427	0.778	0.778	0.816	0.7	0.509	0.553	0.442	0.516	0.496	0.336	0.962	1.06	0.878	0.667	0.239	1.02	0.983	1.1	0.966	0.606
ABC-1	1.22		0.667	0.771	0.926	0.568		0.655	0.548	0.65	0.988	0.735	0.832	0.857	0.725					
BEN	1.04	0.935	1.11	0.904	0.994	0.46	0.401	0.465	0.47	0.431	1.14	0.906	1.04	0.612	0.806	0.491	0.69	0.875	0.582	0.629
CAL-12T	0.802	0.718	0.732	0.618	0.316	0.391	0.433	0.331	0.141	0.116	1.4	1.03	1.07	0.898	0.295	1.28	1.36	1.19	1.02	0.438
COR-L23	0.445	0.463	0.486	0.491	0.207	0.376	0.274	0.225	0.183	0.123	0.913	0.742	0.669	0.379	0.17	0.236	0.196	0.213	0.217	0.179
COR-L 105	0.666	0.694	0.708	0.839	0.396	0.425	0.414	0.396	0.386	0.363	0.929	0.973	0.799	0.329	0.357	1.11	0.905	0.921	0.93	0.527
ChaGo-K-1	0.451	0.473	0.416	0.43	0.378	0.982	0.821	0.915	0.947	0.845						0.268	0.261	0.248	0.25	0.234
EKVX	0.836	0.834	0.713	0.94	0.451	0.397	0.378	0.452	0.368	0.19	0.953	0.869	0.984	0.752	0.335	0.314	0.444	0.33	0.383	0.225
EMC-BAC-2	0.529	0.492	0.468	0.711	0.636	0.563	0.459	0.533	0.553	0.432	0.731	0.662	0.687	0.618	0.534	0.473	0.423	0.631	0.511	0.549
EPLC-272H	0.771	0.833	0.588	0.38	0.219	0.339	0.293		0.295	0.235	0.742	0.702	0.823	0.835	0.512	0.334	0.39	0.408	0.305	0.253
H3255	0.582	0.544	0.496	0.552	0.497	0.312	0.305	0.316	0.316	0.327	0.662	0.617	0.436	0.688	0.562	0.478	0.565	0.523	0.513	0.47
HARA	0.893	0.705	0.939	0.295	0.525	0.337	0.237	0.196	0.158	0.178	0.772	0.776	0.787	0.865	0.338	0.253	0.236	0.26	0.186	0.131
HCC-15	0.869	0.794		0.541	0.398	0.838	0.627		0.445	0.249	0.902	0.878	0.753	0.408	0.165	0.227	0.232	0.22	0.197	0.15
HCC-44	1.02	0.893	0.897	1.05	0.93	0.984	0.885	0.96	1.07	1.29	0.796	0.766	0.716	0.614	0.355	0.766	0.614	0.63	0.656	0.793
HCC-78	0.852	0.639	0.834	0.963	0.754	0.481	0.359	0.466	0.501	0.431	0.313	0.348	0.381	0.276	0.312	0.938	0.859	0.884	0.858	0.919
HCC-366	0.386	0.372		0.271	0.208	0.385	0.311		0.314	0.163	0.446	0.431		0.239	0.0901	0.246	0.178		0.15	0.138
HCC-827	0.556	0.609	0.724	0.768	0.516	0.533	0.46	0.461	0.541	0.301	1.02	1.06	0.983	1.16	0.599	0.254	0.226	0.241	0.271	0.252

Cell Line	relative viability (VX-11e + Olaparib; first compound 0.04 µM)	relative viability (VX-11e + Olaparib; first compound 0.1265 µM)	relative viability (VX-11e + Olaparib; first compound 0.4 µM)	relative viability (VX-11e + Olaparib; first compound 1.265 µM)	relative viability (VX-11e + Olaparib; first compound 4 µM)	relative viability (VX-11e + Palbociclib; first compound 0.04 µM)	relative viability (VX-11e + Palbociclib; first compound 0.1265 µM)	relative viability (VX-11e + Palbociclib; first compound 0.4 µM)	relative viability (VX-11e + Palbociclib; first compound 1.265 µM)	relative viability (VX-11e + Palbociclib; first compound 4 µM)	relative viability (VX-11e + Alpelisib; first compound 0.04 µM)	relative viability (VX-11e + Alpelisib; first compound 0.1265 µM)	relative viability (VX-11e + Alpelisib; first compound 0.4 µM)	relative viability (VX-11e + Alpelisib; first compound 1.265 µM)	relative viability (VX-11e + Alpelisib; first compound 4 µM)	relative viability (VX-11e + Pemetrexed; first compound 0.04 µM)	relative viability (VX-11e + Pemetrexed; first compound 0.1265 µM)	relative viability (VX-11e + Pemetrexed; first compound 0.4 µM)	relative viability (VX-11e + Pemetrexed; first compound 1.265 µM)	relative viability (VX-11e + Pemetrexed; first compound 4 µM)
HOP-62	0.668	0.248	0.174	0.304	0.24	0.505	0.451	0.464	0.434	0.348	1.05	0.921	0.892	0.866	0.502	0.348	0.264	0.277	0.192	0.22
IA-LM	0.877	0.864	0.963	0.536	0.173						0.855	0.734	0.756	0.387	0.143					
LC-2-ad	0.713	0.669	0.746	0.673	0.687	0.48	0.42	0.54	0.46	0.409	0.913	0.867	0.778	0.714	0.585	0.277	0.247	0.285	0.239	0.243
LCLC-97TM1	0.432	0.363	0.29		0.103	0.202	0.176	0.194		0.114	0.285	0.253		0.192	0.12	0.183	0.14	0.243		0.171
LCLC-103H	0.787	0.748	0.719	0.638	0.667	0.469	0.435	0.502	0.456	0.448	1.06	0.905	0.861	0.828	0.819	0.442	0.437	0.53	0.417	0.493
LK-2	0.688	0.783	0.676	0.657	0.45	0.557	0.594	0.566	0.399	0.45		1.06	1.21		0.543	0.171	0.269	0.145	0.183	0.16
LOU-NH91	0.887	0.884		0.901	0.839	0.533	0.509		0.487	0.521	0.692	0.689		0.691	0.538	0.448	0.373		0.367	0.358
LU99A	0.248	0.247	0.298	0.226	0.221	0.334	0.373	0.443	0.326	0.228	0.423	0.38	0.574	0.209	0.175	0.184	0.138	0.201	0.182	0.188
LXF-289	1.15	0.997		1.01	0.736	0.633	0.61		0.618	0.473	1.05	0.962	0.961	0.942	0.695	0.974	0.911		0.803	0.706
NCI-H522	0.588	0.594	0.457	0.545	0.533	0.782	0.924	0.861	0.717	0.733						0.861	0.936	0.962	0.76	0.59
NCI-H596	0.594	0.657	0.688	0.543	0.615						0.504	0.458	0.459	0.48	0.357	0.457	0.506	0.53	0.449	0.464
NCI-H727	0.626	0.593	0.747	0.678	0.457	0.589	0.358	0.602	0.559	0.412	0.432	0.497	0.438	0.333	0.254					
NCI-H1299	1	0.967	0.968	0.92	0.519						1.11	1.03	1.05	1.11	0.708					
NCI-H1563											0.86	0.84	0.897	0.917	0.874	0.766	0.798	0.915	0.631	0.655
NCI-H1648		0.658	0.765	0.855	0.52		0.305	0.301	0.331	0.314							0.891	0.866	0.596	0.674
NCI-H1650	0.685	0.851	0.814	0.793	0.807	0.314	0.258	0.158	0.253	0.28						0.323	0.335	0.334	0.377	0.305
NCI-H1703	0.403	0.591		0.393	0.316						0.303	0.401	0.303	0.444	0.294					
NCI-H2342		0.476	0.414	0.471	0.367		0.542	0.521	0.568	0.515							0.83	0.757	0.798	0.737
SW 900	0.879	0.888		0.836	0.581	0.421	0.422		0.518	0.482						0.49	0.452		0.36	0.294
